Results: patent US20250161476A1 (REGENERON PHARMACEUTICALS, INC., priority 2020, published 2025)

What was measured:
[1] = system: Salmonella typhimurium TA98 and TA100; experiment: Mini-Ames reverse mutation assay with and without S9 mix; assay type: cell-based
Description: The objective of this Mini-Ames study was to evaluate the test article LP11, for its ability to induce reverse mutations in the genome of strains of Salmonella typhimurium TA98 and TA100 in the presence and absence of metabolic activation (S9 mixture).
The Mini-Ames assay was conducted for the test article in the presence and absence of the S9 mixture, concurrently with the negative/solvent control (DMSO) using six wells and positive controls (2 μg/well TA98 alone, 0.2 μg/well TA100 alone or 0.4 μg/well TA98+TA100 in the presence of S9) using three wells. The tested dose levels for the test article, in the presence and absence of S9 mix, were 1000, 400, 160, 64, 25, 10, 4, and 1.5 μg per well, with each dose tested in triplicate. The study was conducted using fresh cultures of the bacterial strains and fresh test article formulations.

[2] = human, 4 h, 2 µM
Description: An assay was performed to determine the plasma protein binding of compounds of the disclosure. For the assay, on the day of experiment, the plasma was thawed in cold water and centrifuged at 3220 rpm for 5 minutes to remove any clots. The pH value of the resulting plasma was checked
For the dialysis, the test compound and control compound were dissolved in DMSO to achieve 10 mM stock solutions. DMSO working solutions were prepared at 400 μM. To prepare the loading matrix, compound working solutions (5 μL) were added in a 1:200 ratio to blank matrix (995 μL) and mixed thoroughly. To prepare the time zero (TO) samples to be used for recovery determination, 50 μL aliquots of loading matrix were transferred in triplicate to the sample collection plate. The samples were immediately matched with opposite blank buffer to obtain a final volume of 100 μL of 1:1 matrix/dialysis buffer (v/v) in each well. 500 μL of stop solution were added to these TO samples. This was then stored at 2-8° C. pending further processes along with other post-dialysis samples. To load the dialysis device, an aliquot of 150 μL of the loading matrix was transferred to the donor side of each dialysis well in triplicate, and 150 μL of the dialysis buffer was loaded to the receiver side of the well. […]
The percent unbound, percent bound, and percent recovery values were calculated using the following equations: […]

[3] = system: HEK293/CRE-Luc cells; experiment: cAMP responsive luciferase reporter assay, HEK293/CRE-Luc cells (no hGLP1R expression); assay type: cell-based, human
Outline: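 Counter-screen in HEK293 cells carrying CRE-driven firefly luciferase without hGLP1R; 3-fold serial dilutions of payloads or linker-payloads at 0.2% final DMSO, 4–6 h.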

[4] = target: human glucagon receptor (GCGR) (Homo sapiens (Human), UniProt P47871); experiment: CRE-luciferase reporter bioassay, HEK293/Myc-hGCGR/Cre-Luc cell line; assay type: cell-based
Description: (§2) Cells were incubated overnight at 37° C. in 5% CO2. […] Plates were incubated for 5.5 h at 37° C. in 5% CO2. For end-point measurement, 100 μL/well of One-Glo reagent (Promega, #E6051) was added and plates were kept at room temperature for 5-10 minutes. Luciferase activity was measured on Envision Multilabel Plate Reader (Perkin Elmer) in Luminescent mode. The relative light units (RLU) values were obtained and the results were analyzed using nonlinear regression with GraphPad Prism software (GraphPad).

[5] = Plasma stability of payloads and linker-payloads, mouse plasma; assay type: in vitro ADME; conditions: assay time 3 days
Description: (§1) The plasma stability of payloads and linker payloads of the disclosure were measured. For the assay, pooled frozen plasma (human, mouse or monkey) was thawed in cold water or a 37° C. water bath prior to experiment. Plasma was centrifuged at 4000 rpm for 5 min if any clots were observed, they were subsequently removed. If required, the pH was adjusted to 7.4±0.1. For the preparation of compounds and positive controls, a 1 mM intermediate solution was prepared by diluting 10 μL of their stock solution with 90 μL DMSO; a 1 mM intermediate solution of the positive control (Propantheline) was prepared by diluting 10 μL of its stock solution with 90 μL ultrapure water. Subsequently, 100 μM dosing solution for each compound was prepared by diluting 20 μL of the intermediate solution (1 mM) with 180 μL 45% MeOH/H2O. 98 μL of plasma was spiked with 2 μL of dosing solution (100 μM) to achieve the final concentration of 2 μM in duplicate. Samples were then incubated at 37° C. in a water bath. […] At each time point, 400 μL of stop solution (200 ng/mL tolbutamide plus 200 ng/mL labetalol in 50% ACN/MeOH) was added to precipitate protein and mixed thoroughly. Sample plates were then centrifuged at 4,000 rpm for 10 min. An aliquot of supernatant (50 μL) was transferred from each well and mixed with 100 μL ultra-pure water. […]

[6] = Liver microsome stability (intrinsic clearance); assay type: in vitro ADME; conditions: microsomes
Description: To assess the in vitro ADME properties of the LP, microsomal stability assay was performed to determine intrinsic clearance, and plasma protein binding assay was performed to understand the distribution potential.

[7] = target: human gastric inhibitory polypeptide receptor (GIPR) (Homo sapiens (Human), UniProt P48546); experiment: CRE-luciferase reporter bioassay, HEK293/Myc-hGIPR/Cre-Luc cell line; assay type: cell-based
Description: as §2

[8] = Plasma stability of payloads and linker-payloads, monkey plasma; assay type: in vitro ADME; conditions: assay time 3 days
Description: as §1

[9] = target: human glucagon-like peptide 2 receptor (GLP2R) (Homo sapiens (Human), UniProt O95838); experiment: CRE-luciferase reporter bioassay, HEK293/Myc-hGLP2R/Cre-Luc cell line; assay type: cell-based; conditions: GLP2R
Description: as §2

[10] = target: T1, human GLP1R (Homo sapiens (Human), UniProt P43220); experiment: cAMP responsive luciferase reporter assay, HEK293/CRE-Luc/hGLP1R cells; assay type: cell-based
[11] = target: T1, human GLP1R; experiment: Human GLP1R cAMP accumulation assay (HEK293 cells over-expressing human GLP-1R); assay type: cell-based; conditions: HEK293/hGLP1R cells, 30 min
Description: The functional activity of the test compounds for agonizing GLP1R were evaluated using a cell-based assay. For the assay, HEK293 cells over-expressing full length human GLP-1R were utilized and the downstream cAMP accumulation was assessed as a measure of human GLP-1R stimulation. […] Diluted compounds were transferred to OptiPlates (100 nL/well) using an Echo liquid handler. HEK293/hGLP1R cells were thawed in 37° C. water-bath, washed 2 times with HBSS and re-suspended in assay buffer (HBSS+5 mM HEPES+500 μM IBMX+0.1% BSA). […] After centrifugation, the assay plate was incubated at 23° C. for 30 min. The reaction was terminated by adding 10 μL of lysis buffer containing D2-cAMP and a cAMP-antibody from the cyclic AMP immunoassay kit (Cisbio, Cat #62AM4PEJ). […] The levels of cAMP per well were calculated using a standard curve generated by GraphPad Prism. […] EC50 values were fitted from a four-parameter logistic equation over a 10-point response curve (GraphPad Prism).

[12] = relative to P8 of the same experiment

T1 sequence (P43220 24-463): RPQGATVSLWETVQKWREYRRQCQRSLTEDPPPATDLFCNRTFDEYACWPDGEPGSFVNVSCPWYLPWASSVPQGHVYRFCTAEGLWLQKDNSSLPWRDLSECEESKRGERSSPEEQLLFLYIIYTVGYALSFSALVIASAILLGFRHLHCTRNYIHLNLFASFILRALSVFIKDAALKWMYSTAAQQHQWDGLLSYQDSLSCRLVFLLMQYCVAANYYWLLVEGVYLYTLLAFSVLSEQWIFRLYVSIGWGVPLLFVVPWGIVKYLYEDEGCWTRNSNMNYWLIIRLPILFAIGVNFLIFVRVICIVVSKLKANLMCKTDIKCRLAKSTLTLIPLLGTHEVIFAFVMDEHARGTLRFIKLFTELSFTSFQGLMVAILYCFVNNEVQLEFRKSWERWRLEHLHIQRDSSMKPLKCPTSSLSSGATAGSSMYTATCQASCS
Sequence of human glucagon receptor (GCGR) (P47871 26-477): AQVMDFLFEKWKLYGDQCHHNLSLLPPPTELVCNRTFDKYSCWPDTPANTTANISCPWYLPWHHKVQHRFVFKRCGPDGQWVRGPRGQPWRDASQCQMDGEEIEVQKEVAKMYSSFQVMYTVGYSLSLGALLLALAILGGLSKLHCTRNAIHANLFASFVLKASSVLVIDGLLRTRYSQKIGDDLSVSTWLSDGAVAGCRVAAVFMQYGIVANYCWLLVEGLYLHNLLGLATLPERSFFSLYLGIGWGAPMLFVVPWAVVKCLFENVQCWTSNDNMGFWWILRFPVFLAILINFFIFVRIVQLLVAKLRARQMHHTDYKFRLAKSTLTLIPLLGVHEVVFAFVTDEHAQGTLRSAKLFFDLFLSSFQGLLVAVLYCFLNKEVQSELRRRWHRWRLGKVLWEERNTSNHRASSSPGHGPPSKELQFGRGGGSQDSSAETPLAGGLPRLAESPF
Sequence of human gastric inhibitory polypeptide receptor (GIPR) (P48546 22-466): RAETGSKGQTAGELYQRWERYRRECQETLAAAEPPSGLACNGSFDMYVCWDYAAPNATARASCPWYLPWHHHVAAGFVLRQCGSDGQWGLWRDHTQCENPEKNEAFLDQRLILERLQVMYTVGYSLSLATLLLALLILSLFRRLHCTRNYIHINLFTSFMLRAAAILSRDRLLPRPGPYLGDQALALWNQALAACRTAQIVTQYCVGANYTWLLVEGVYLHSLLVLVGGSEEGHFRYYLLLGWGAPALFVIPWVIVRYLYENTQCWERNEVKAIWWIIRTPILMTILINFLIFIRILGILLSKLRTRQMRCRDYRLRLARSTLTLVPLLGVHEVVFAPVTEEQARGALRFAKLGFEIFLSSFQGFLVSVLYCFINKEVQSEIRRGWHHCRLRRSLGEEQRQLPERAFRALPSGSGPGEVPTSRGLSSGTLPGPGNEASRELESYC
Sequence of human glucagon-like peptide 2 receptor (GLP2R) (O95838 whole entry): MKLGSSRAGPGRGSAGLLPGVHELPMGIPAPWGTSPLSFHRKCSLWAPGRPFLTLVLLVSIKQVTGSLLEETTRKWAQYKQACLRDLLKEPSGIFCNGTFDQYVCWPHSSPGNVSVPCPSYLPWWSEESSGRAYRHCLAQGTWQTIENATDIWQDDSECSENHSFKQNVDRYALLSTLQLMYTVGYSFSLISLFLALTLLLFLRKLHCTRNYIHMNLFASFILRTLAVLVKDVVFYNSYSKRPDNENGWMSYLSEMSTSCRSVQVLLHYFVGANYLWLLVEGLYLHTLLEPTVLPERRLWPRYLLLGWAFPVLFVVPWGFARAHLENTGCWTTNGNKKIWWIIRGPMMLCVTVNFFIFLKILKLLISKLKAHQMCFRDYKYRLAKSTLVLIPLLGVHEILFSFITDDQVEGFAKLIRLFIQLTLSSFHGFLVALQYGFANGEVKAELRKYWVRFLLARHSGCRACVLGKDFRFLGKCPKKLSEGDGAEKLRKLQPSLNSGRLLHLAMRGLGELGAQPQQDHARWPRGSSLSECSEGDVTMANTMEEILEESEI

Row | SMILES | cytotoxicity in tester strains ([1]; 1.5-1000 μg per well, with or without S9 mix) | mutagenicity ([1]; Mini-Ames conclusion) | Ames (TA98 and TA100) in the presence and absence of S9 ([1]; TA98 and TA100, with and without S9) | increase in the mean number of revertant colonies relative to negative/solvent control ([1]; TA98 or TA100, any dose level, presence or absence of S9 mix) [fold] | % Recovery [2] [%] | EC50 [3] [nM] | HEK293/CRE-LUC S/N [3] | GLP2R, GIPR, or GCGR EC50 [4] | plasma stability T½ [5] [h] | CLint(liver) [6] [mL/min/kg] | T1/2 [6] [h] | GLP2R, GIPR, or GCGR EC50 [7] | plasma stability T½ [8] [h] | GLP2R, GIPR, or GCGR EC50 [9] | HEK293/CRE-LUC/hGLP1R S/N ([10]; highest RLU / RLU of untreated wells) | HEK293/CRE-LUC/hGLP1R Relative Potency (% P8 EC50) [10, 12] [%] | HEK293/CRE-LUC/hGLP1R Relative Signal:Noise (% P8) [10, 12] [%] | EC50 [11] [nM]
1 | CCc1cc(OCCCCn2cc(COCCOCCOCCOCCOCCOCCOCCOCCN)nn2)ccc1-c1ccc(C[C@H](NC(=O)[C@H](CC(=O)O)NC(=O)[C@H](CO)NC(=O)[C@@H](NC(=O)C(C)(Cc2ccccc2F)NC(=O)[C@@H](NC(=O)CNC(=O)[C@H](Cc2nn[nH]n2)NC(=O)C(C)(C)C(=O)NCCc2cnc[nH]2)[C@@H](C)O)[C@@H](C)O)C(=O)N[C@@H](CCCc2cc(C)cc(C)c2)C(N)=O)cc1 (stereo partly drawn) [LP11, NH2-PEG8-triazole-P8] | no obvious cytotoxicity | negative for mutagenicity | Negative for | ≤ 2.0 | 89.2 | > 200 | 1.3 | Completely inactive | >140 | <8.6 | >2.42 | Completely inactive | >49.4 | Completely inactive | 74.5 | 33.1 | 113.3 | 
2 | CCc1cc(OCCCCNC(=O)CNC(=O)CNC(=O)CNC(=O)CNC(=O)[C@H](CO[C@@H]2OC(CO)[C@@H](O)[C@H](O)C2O)NC(=O)CCNC(=O)OC[C@@H]2[C@@H]3CCC#CCC[C@@H]32)ccc1-c1ccc(C[C@H](NC(=O)[C@H](CC(=O)O)NC(=O)[C@H](CO)NC(=O)[C@@H](NC(=O)[C@](C)(Cc2ccccc2F)NC(=O)[C@@H](NC(=O)CNC(=O)[C@H](Cc2nn[nH]n2)NC(=O)C(C)(C)C(=O)NCCc2cnc[nH]2)[C@@H](C)O)[C@@H](C)O)C(=O)N[C@@H](CCCc2cc(C)cc(C)c2)C(N)=O)cc1 (stereo partly drawn) [LP18, BCN-NHC2H4CO-(glucose) SG4-P9] |  |  |  |  |  |  |  |  |  |  |  |  |  |  |  |  |  | 0.458
